PubChem BioAssay AID328 (DTP/NCI, 2004)
Where “and” joins values, the source holds several entries; their conditions need not be identical. Equal entries are not always repeated. Inconclusive results and toxic doses are left out. The calls were made as follows: active = survival T/C of 150% or more; inactive = T/C below 125% in these data.

System: BDF1 mice, P388 leukemia ip, median survival T/C
Assay: NCI In Vivo Anticancer Drug Screen. Data for tumor model P388 Leukemia (intraperitoneal) in B6D2F1 (BDF1) mice
Details: endpoint: median survival time, higher = longer survival
Method in brief: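 Transplantable tumour in mice; compound vs vehicle dosing; survival scored; ratio of treated to control reported.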

[1] = dose: 25.0 mg/kg/injection, schedule: Q01DX009 (ip), vehicle: saline
[2] = dose: 25.0 mg/kg/injection, schedule: Q04DX003 (ip), vehicle: saline
[3] = dose: 50.0 mg/kg/injection, schedule: Q01DX009 (ip), vehicle: saline
[4] = dose: 50.0 mg/kg/injection, schedule: Q04DX003 (ip), vehicle: saline
[5] = dose: 100.0 mg/kg/injection, schedule: Q01DX009 (ip), vehicle: saline
[6] = dose: 100.0 mg/kg/injection, schedule: Q04DX003 (ip), vehicle: saline
[7] = dose: 200.0 mg/kg/injection, schedule: Q01DX009 (ip), vehicle: saline
[8] = dose: 200.0 mg/kg/injection, schedule: Q04DX003 (ip), vehicle: saline
[9] = dose: 400.0 mg/kg/injection, schedule: Q04DX003 (ip), vehicle: saline
[10] = dose: 50.0 mg/kg/injection, schedule: Q01DX009 (ip), vehicle: saline with Tween-80
[11] = dose: 100.0 mg/kg/injection, schedule: Q01DX009 (ip), vehicle: saline with Tween-80
[12] = dose: 200.0 mg/kg/injection, schedule: Q01DX009 (ip), vehicle: saline with Tween-80
[13] = dose: 50.0 mg/kg/injection, schedule: Q04DX003 (ip), vehicle: saline with Tween-80
[14] = dose: 100.0 mg/kg/injection, schedule: Q04DX003 (ip), vehicle: saline with Tween-80
[15] = dose: 200.0 mg/kg/injection, schedule: Q04DX003 (ip), vehicle: saline with Tween-80
[16] = dose: 400.0 mg/kg/injection, schedule: Q04DX003 (ip), vehicle: saline with Tween-80
[17] = dose: 200.0 mg/kg/injection, schedule: Q01DX001 (ip), vehicle: saline with Tween-80

Measured: T/C

CCN(CCO)c1ccc(N)cc1C
inactive: dose: 1.56 mg/kg/injection, schedule: Q01DX009 (ip), vehicle: saline 100 % of control | dose: 3.13 mg/kg/injection, schedule: Q01DX009 (ip), vehicle: saline 100 % of control | dose: 6.25 mg/kg/injection, schedule: Q01DX009 (ip), vehicle: saline 90 % of control

CCN(CC)Cc1cc(Nc2c3ccc([N+](=O)[O-])cc3nc3ccc(OC)cc23)ccc1O
inactive: dose: 12.5 mg/kg/injection, schedule: Q04DX003 (ip), vehicle: saline 111 % of control | [1] 97 % of control | [2] 111 % of control | [3] 104 % of control | [4] 113 % of control | [5] 100 % of control | [6] 113 % of control | [7] 121 % of control | [8] 89 % of control | [9] 104 % of control

CCNC(C)(C)C(SSS)c1ccco1 (centres undefined)
inactive: dose: 100.0 mg/kg/injection, schedule: Q04DX003 (ip), vehicle: gum acacia 100 % of control and 116 % of control | dose: 134.0 mg/kg/injection, schedule: Q01DX009 (ip), vehicle: gum acacia 100 % of control | dose: 200.0 mg/kg/injection, schedule: Q04DX003 (ip), vehicle: gum acacia 109 % of control | dose: 400.0 mg/kg/injection, schedule: Q04DX003 (ip), vehicle: gum acacia 91 % of control and 122 % of control

CCCCOC(=O)C1(N)CCCC1
inactive: [3] 104 % of control | dose: 150.0 mg/kg/injection, schedule: Q01DX009 (ip), vehicle: saline with Tween-80 120 % of control | [7] 109 % of control

C/C(=C\c1ccc(Cl)cc1)C(C)(C)C(=O)O
inactive: [10] 104 % of control | [11] 102 % of control | [12] 95 % of control

CC(C)N=Cc1ccccc1O.CC(C)N=Cc1ccccc1O.[Ni]
inactive: dose: 6.25 mg/kg/injection, schedule: Q04DX003 (ip), vehicle: saline sonified 105 % of control | dose: 12.5 mg/kg/injection, schedule: Q04DX003 (ip), vehicle: saline sonified 105 % of control | dose: 25.0 mg/kg/injection, schedule: Q04DX003 (ip), vehicle: saline sonified 115 % of control

COc1ccc(/C=C/C(C)=O)cc1OC
inactive: [1] 94 % of control | [2] 107 % of control | [3] 99 % of control | [4] 106 % of control | [5] 110 % of control | [6] 105 % of control | [7] 103 % of control | [8] 100 % of control | dose: 400.0 mg/kg/injection, schedule: Q01DX009 (ip), vehicle: saline 108 % of control | [9] 107 % of control

NCC(O)CSc1ccc(Cl)c(Cl)c1 (centres undefined)
inactive: dose: 50.0 mg/kg/injection, schedule: Q04DX002 (ip), vehicle: saline with Tween-80 98 % of control | dose: 100.0 mg/kg/injection, schedule: Q04DX002 (ip), vehicle: saline with Tween-80 106 % of control

CC(=O)OCC(=O)[C@@]1(O)CC[C@H]2[C@@H]3CCC4=CC(=O)C=C[C@]4(C)[C@H]3[C@@H](O)C[C@@]21C
inactive: [1] 91 % of control | [3] 91 % of control | [6] 109 % of control

COc1ccc(/C=C/C(=O)c2ccc(OCc3ccccc3)c(OC)c2)cc1OC
inactive: [13] 105 % of control | [14] 99 % of control | [15] 87 % of control | [16] 87 % of control

BrC(Br)c1ccc2ccccc2n1
inactive: dose: 100.0 mg/kg/injection, schedule: Q01DX009 (ip), vehicle: Klucel (hydroxypropylcellulose) (HPC) 108 % of control | dose: 100.0 mg/kg/injection, schedule: Q04DX003 (ip), vehicle: Klucel (hydroxypropylcellulose) (HPC) 100 % of control | dose: 200.0 mg/kg/injection, schedule: Q01DX009 (ip), vehicle: Klucel (hydroxypropylcellulose) (HPC) 108 % of control | dose: 200.0 mg/kg/injection, schedule: Q04DX003 (ip), vehicle: Klucel (hydroxypropylcellulose) (HPC) 91 % of control | dose: 400.0 mg/kg/injection, schedule: Q01DX009 (ip), vehicle: Klucel (hydroxypropylcellulose) (HPC) 95 % of control | dose: 400.0 mg/kg/injection, schedule: Q04DX003 (ip), vehicle: Klucel (hydroxypropylcellulose) (HPC) 91 % of control

NS(=O)(=O)CS(=O)(=O)Oc1ccccc1
inactive: dose: 100.0 mg/kg/injection, schedule: Q01DX001 (ip), vehicle: saline with Tween-80 100 % of control | [17] 99 % of control

CC(=O)OCC(=O)[C@@]12OC(C)(C)O[C@@H]1C[C@H]1[C@@H]3CC(C=O)=C4C=C(OCCCl)CC[C@]4(C)[C@@]3(F)[C@@H](O)C[C@@]12C
inactive: dose: 0.39 mg/kg/injection, schedule: Q01DX009 (ip), vehicle: Klucel (hydroxypropylcellulose) (HPC) 95 % of control | dose: 0.78 mg/kg/injection, schedule: Q01DX009 (ip), vehicle: Klucel (hydroxypropylcellulose) (HPC) 107 % of control and 113 % of control | dose: 1.56 mg/kg/injection, schedule: Q01DX009 (ip), vehicle: Klucel (hydroxypropylcellulose) (HPC) 106 % of control and 113 % of control | dose: 2.3 mg/kg/injection, schedule: Q04DX003 (ip), vehicle: Klucel (hydroxypropylcellulose) (HPC) 104 % of control | dose: 3.12 mg/kg/injection, schedule: Q01DX009 (ip), vehicle: Klucel (hydroxypropylcellulose) (HPC) 100 % of control | dose: 3.13 mg/kg/injection, schedule: Q01DX009 (ip), vehicle: Klucel (hydroxypropylcellulose) (HPC) 105 % of control | dose: 4.6 mg/kg/injection, schedule: Q04DX003 (ip), vehicle: Klucel (hydroxypropylcellulose) (HPC) 109 % of control | dose: 6.25 mg/kg/injection, schedule: Q01DX009 (ip), vehicle: Klucel (hydroxypropylcellulose) (HPC) 122 % of control | dose: 9.3 mg/kg/injection, schedule: Q04DX003 (ip), vehicle: Klucel (hydroxypropylcellulose) (HPC) 100 % of control | dose: 12.5 mg/kg/injection, schedule: Q01DX009 (ip), vehicle: Klucel (hydroxypropylcellulose) (HPC) 124 % of control | dose: 13.0 mg/kg/injection, schedule: Q04DX003 (ip), vehicle: Klucel (hydroxypropylcellulose) (HPC) 115 % of control | dose: 25.0 mg/kg/injection, schedule: Q04DX003 (ip), vehicle: saline with Tween-80 115 % of control | dose: 30.0 mg/kg/injection, schedule: Q04DX003 (ip), vehicle: Klucel (hydroxypropylcellulose) (HPC) 115 % of control | dose: 45.0 mg/kg/injection, schedule: Q04DX003 (ip), vehicle: Klucel (hydroxypropylcellulose) (HPC) 104 % of control | [13] 114 % of control | dose: 70.0 mg/kg/injection, schedule: Q04DX003 (ip), vehicle: Klucel (hydroxypropylcellulose) (HPC) 108 % of control | [14] 124 % of control | dose: 105.0 mg/kg/injection, schedule: Q04DX003 (ip), vehicle: Klucel (hydroxypropylcellulose) (HPC) 113 % of control | [15] 118 % of control | [16] 100 % of control

O=C(Nc1ccccc1C(F)(F)F)Nc1cccc2ccccc12
inactive: [17] 90 % of control | dose: 400.0 mg/kg/injection, schedule: Q01DX001 (ip), vehicle: saline with Tween-80 86 % of control

O=c1cc(O)ccn1CCc1cccs1
inactive: dose: 12.5 mg/kg/injection, schedule: Q01DX009 (ip), vehicle: saline with Tween-80 109 % of control | dose: 25.0 mg/kg/injection, schedule: Q01DX009 (ip), vehicle: saline with Tween-80 109 % of control | [10] 121 % of control | [11] 105 % of control | [14] 114 % of control | [12] 112 % of control | [15] 110 % of control | dose: 400.0 mg/kg/injection, schedule: Q01DX009 (ip), vehicle: saline with Tween-80 110 % of control | [16] 119 % of control
